# Columns and labels:
# Type in all cases: in vivo
# [1] = system: Lólium perénne; assay: TLC plant biomarker pattern after herbicide spraying (greenhouse); conditions: Roundup Bio; Lólium perénne
# Protocol: (§1) The experiments were performed in the green-house at the National Environmental Research Institute, Silkeborg, Denmark. All the seeds needed light to germinate, and were sown at the soil surface in individual 11 cm pots. The soil used during the experiments contained: (SM Growing Mould (Growing medium by special soil (sphagnum) added clay granulate), 0-30 mm; grade of turnover 55-75; added per m^3: 3 kg lime (white chalk), 1.5 kg dolit chalk, 40 kg clay granulate; Fertilizer added granulate: NO3-N: 55.0 g; NH4-N: 65.0 g; P: 106.6 g; K: 224.0 g; Mg: 22 g; Micro nutrients added in chelate form, Mo in uorganic form: B-Boron: 1 g; Cu-copper: 6 g; Mn-Manganese: 3 g; Zinc-Zn: 3 g: Fe-iron: 6 g; Mo- molybdenum: 1.4 g).
# (§2) During the experiments plants were watered from below, and the temperature in the green-house was maintained between 15° C. and 25° C. with variations due to external weather, and the photoperiod was 16th daylight. The green-house is divided into different units, which allowed for the separate maintenance of the control plants from the sprayed plants to avoid undesirable effects due to vapour drift.
# (§3) Glyphosate (Roundup Bio (360 g L^−1) was supplied by Monsanto Denmark A/S. Recommended field dose=1,44 kg a.i. ha^−1. In all the experiments, an automatic sprayer (designed in Denmark by Jens Kristensen 1994) was used where the herbicide application is achieved by moving boom equipment with two ordinary hydraulic flat fan nozzles (Hardi 4110-16). Two pots per spray event were placed in the middle of the spray chamber at 50 cm distance from the nozzle, delivering 200 L of water per-hectare with a desired herbicide concentration (working pressure 2 bars; speed of spray boom=4.7 km h^−1). The spraying was performed starting with the lowest concentration first, progressing towards the highest concentration. Between each herbicide, the sprayer was thoroughly rinsed several times with water. The control plants were sprayed with water.
# (§4) The fresh plant material was pressed using a hand press. The extract was immediately centrifuged. (3000 rpm) for 10 minutes. The supernatant was used for analysis. The extracts were kept cool or right above 0° C. during the test to avoid decomposition of biomarkers.
# (§5) Freeze-dried plant material was crushed and 250 mg was extracted with 5.00 ml 75% ethanol in an ultrasonic bath for 2 hours. The temperature was kept <0° C. (using ice) during the extraction to avoid decomposition of biomarkers. The extract was centrifuged (3000 rpm) for 10 minutes. The supematant was used for analysis and were kept cool during the test to avoid decomposition of biomarkers.
# (§6) The two extracts (freshtfresh ethanol) were applicated immediately on a TLC plate (10 μl on both TLC-Plate types (see below) using cool air-drying. The 75% ethanolic extract was applicated 10 μl on Silica-gel TLC-plates and 5 μl on Cellulose TLC-plates (see below). The fresh/fresh ethanolic extractsare recommended to perform if fresh plant material are to be analysed (field-test). The freeze-dried or frozen plant material extraction Is recommended if the analysis are performed in the laboratory.
# (§7) TLC-System 1: HPTLC-Alufolie Silica Gel 60 F254, Merck 1.05548 (10×10 cm); 10 μl plant extracts plants exposed to glyphosate and control plants; eluted in n-butanol acetic acid: water (4:1:5) (upper phase after 5 minutes shaking). Derivatisation: Stock solution 1:50% sulfuric acid in 96% ethanol; Stock solution 2: 2% vanillin in absolut alcohol; Derivatisation-solvent, Fresh produced before us, stock solution 1 and stock solution 2 (1:10); Aftercare: 120° C. in 2-3 min. The plate is valuated visually. The system detects higher alcoholics, phenolic compounds, steroids and etheric oils (Stahl 1969), terpenoids, phenyl propanolds, phenolic compounds (Wagner etea. 1984) […]
# [2] = system: Plantágo lanceoláta; assay: as above
# Protocol: as §1, §2, §3, §4, §5, §6, §7
# [3] = system: Bellis perennis; assay: Visual effect rating (0-9) after Roundup Bio
# Protocol: (§8) Four, eight, sixteen and thirty two days after spraying, visual effects on plants were noted before harvest, using the rating chart described in Hamil. et al. (1977) and Boutin et al. (1993); a rating of zero indicates full growth and vigour, and a rating of nine indicates no growth/mortality.
# (§9) The study was performed in greenhouse between August and December 1998 for all species. Degree days (=(Present temperature in ° C.-5° C.)×amount of days) were used as time scale. The plants were 226-378 degree days (30 days) old before exposure. The plants were exposed to 0, 1. 10 and 100% of the recommended field dose of Roundup Bio. Before the harvest, the plants were evaluated for visual effects using the rating chart described in Table 1 (Hamit et al., 1977). A rating of zero indicates full growth and vigour (compared with control plants) and a rating of nine, no growth/mortality. The plants were all harvested 180 degree days (14 days) after exposure. The plants were lyophilizied and k pt dry and in dark before phytochemical analysis.
# (§10) Table 2: Sensitivity of plants exposed to glyphosate (Roundup Bio), based on presence of phytochemical changes in all the TLC-Systems at lowest dose of concentration (LC) of the herbicide in percent of field dose. The corresponding visual effect (VE) Is presented (see table 1).
# [4] = system: Leonorus carica; assay: Visual effect rating (0-9) after Roundup Bio
# Protocol: as §8, §9, §10
# [5] = system: Mentha spicata; assay: Visual effect rating (0-9) after Roundup Bio
# Protocol: as §8, §9, §10
# [6] = system: Nepeta cataria; assay: Visual effect rating (0-9) after Roundup Bio
# Protocol: as §8, §9, §10
# [7] = system: Papaver rhoeas; assay: Visual effect rating (0-9) after Roundup Bio
# Protocol: as §8, §9, §10
# [8] = system: Rudbeckia hirta; assay: Visual effect rating (0-9) after Roundup Bio
# Protocol: as §8, §9, §10
# [9] = system: Sinapis avensis; assay: Visual effect rating (0-9) after Roundup Bio
# Protocol: as §8, §9, §10
smiles,measurement,setting,value
O=C(O)CNCP(=O)(O)O [Glyphosate],LC: lowest dose of concentration of the herbicide with phytochemical changes in all the TLC-Systems,[1],1% of field dose
same,LC: lowest dose of concentration of the herbicide with phytochemical changes in all the TLC-Systems,"[2]; Roundup Bio, Plantágo lanceoláta",1% of field dose
same,Min. of label dose of herbicide with effect,[2]; TLC 1 (non-specific compounds),1%
same,Min. of label dose of herbicide with effect,[2]; TLC 2 (phenolic compounds),1%
same,Min. of label dose of herbicide with effect,[2]; TLC 6 (lipids and terpens),1%
same,Min. of label dose of herbicide with effect,[2]; TLC 7 (non-specific compounds),1%
same,Min. of label dose of herbicide with effect,[2]; TLC 4d (amino acids),1%
same,VE: corresponding visual effect,[3],7
same,VE: corresponding visual effect,[4],5
same,VE: corresponding visual effect,[5],6
same,VE: corresponding visual effect,[6],7
same,VE: corresponding visual effect,[7],4
same,VE: corresponding visual effect,[8],1
same,VE: corresponding visual effect,[9],7

# Reference: patent US20040029208A1, “Assay method and kit for testing biological material for exposure to stress using biomarkers” (priority 2000, published 2004)
